Measurements reported in patent US20160143867A1, “METHODS AND PHARMACEUTICAL COMPOSITIONS FOR TREATING CANCER” (INSERM (INSTITUT NATIONAL DE LA SANTÉ ET DE LA RECHERCHE …, priority 2013, published 2016).

Tested on: glioma-initiating cells (GICs)
Test: Cell survival of GICs exposed to GHB
Settings: exposure of GICs to GHB

O=C(O)CCCO [GHB, gamma-hydroxybutyrate]
cell survival: without affecting cell survival
